For one assay, the system named is WWOX. Put plainly: WWOX phosphorylation in melanoma-bearing nude mice. Type of assay: in vivo, mouse. Conditions: B16F10-bearing nude mice, n=3. The protocol: FIG. 4 includes photos showing that Zfra suppresses melanoma B16F10-mediated neurodegeneration in the hippocampus. Nude mice were preinjected with 100 μL, of sterile Milli-Q water or Zfra4-10 (1 mM in sterile water) in 3 consecutive weeks. After treatment for a week, these mice were inoculated with melanoma B16F10 cells on both flanks (2×10^5 cells in 100-μL, PBS). Mice were sacrificed when the tumor sizes grew up to 2000-3000 mm^3 in about a month. (A) Zfra blocked neurodegeneration in the hippocampus (top panel) and prevented the formation of TPC6AΔ plaques in the cortex (bottom panel), which negatively correlates with pS14-WWOX expression. Note the presence of condensed apoptotic nuclei in the hippocampal neurons in the control mice, (B) Metastasis of B16F10 cells to the lung was blocked in Zfra-treated mice. Compared to controls, Zfra suppressed p-S14WWOX expression in the lung by ˜72% suppression (three sections). […] (C and D) The non-spatial learning and memory were determined by novel object recognition task for both 3×Tg and Wwox+/− mice. […] Also, see data in FIG. 1.
Six- to eight-week-old male nude (BALB/cAnN.Cg-Foxn1^nu/CrlNarl) mice (National Laboratory Animal Center, Taiwan) were used. Mice were intravenously injected into tail veins with 100 μL of Zfra1-31 or Zfra4-10 (2 mM), or sterile water. After injection for 1-8 weeks, mouse melanoma B16F10 or human glioma 13-06-MG cells (2-2.5×10^6 cells/100-μL saline) were then inoculated in subcutaneous sites at both flanks. Tumor volumes were measured daily and calculated using the equation, D×(d)^2/2, where D and d are the major and minor diameters, respectively. At indicated time point, mouse organs, including brain, lung, spleen, and liver, were harvested and fixed with 4% paraformaldehyde. IHC was carried out using indicated specific antibodies to determine protein expression in tissues and organs. Where indicated, TMR-Zfra was used to stain spleen, brain, and lung tissues. Z-cell distribution in organs was determined under fluorescence microscopy.

Assay [1] has as its target T1, WWOX7-21, WWOX286-299, and ANKRD40266-281 peptides (Homo sapiens, UniProt Q9NZC7).
T1 construct: purchased Genemed Synthesis
As to the kind of experiment: Polymerization of serine-containing WWOX and ANKRD40 peptides in PBS. Type of assay: biochemical. The protocol: (§1) FIG. 5 includes photos and diagrams showing that Zfra suppresses polymerization or aggregation of serine-containing TPC6AΔ and other peptides in PBS. Zfra4-10 was incubated with an indicated serine-containing peptide in PBS at room temperature for 24 hours (final 200 μM each peptide). The mixtures were subjected to nonreducing sodium dodecyl sulfate polyacrylamide gel electrophoresis (SDS-PAGE). (A) Full-length Zfra or red-fluorescent TMR-Zfra blocked aggregation of Aβ42 (lanes 3, 5, and 7). […] The membrane was stained with antibody against Aβ. (B) Zfra4-10 and one of the TPC6AΔ peptides were resuspended in Milli-Q water or PBS and incubated for 24 hours at room temperature. Zfra4-10 suppressed the polymerization of serine-containing peptides. Reduction in intensity=[1−(Z.P)/(Z+P)]×100%, where Z=Zfra4-10, P=an indicated peptide, and Z.P=peptide mixture. […] Zfra4-10 suppressed polymerization of these peptides in PBS.
(§2) Zfra and serine-containing peptides were synthesized by Genemed Synthesis (San Antonio, Tex., USA), (1) Zfra1-31, […] (SEQ ID NO: 2); (2) Zfra4-10, RRSSSCK (SEQ ID NO: 1); (3) WWOX7-21, AGLDDTDSEDELPPG (SEQ ID NO: 3); (4) pS14-WWOX7-21, AGLDDTDpSEDELPPG (SEQ ID NO: 4); (5). WWOX286-299, DYWAMLAYNRSKLC (SEQ ID NO: 5); (6) pY287-WWOX286-299, DpYWAMLAYNRSKLC (SEQ ID NO: 6); (7) TPC6A24-38, DPGPGGQKMSLSVLE (SEQ ID NO: 7); (8) pS35-TPC6A24-38, DPGPGGQKMSLpSVLE (SEQ ID NO: 8); (9) TPC6A84-100, KDLWVAVFQKQMDSLR (SEQ ID NO: 9); (10) ANKRD40266-281, RIQNPSLRENDFIEIE (SEQ ID NO: 10); (11) pS271-ANKRD40266-281, RIQNPpSLRENDFIEIE (SEQ ID NO: 11); (12) tetramethylrhodamine-labeled Zfra (TMR-Zfra), the full-length Zfra1-31 was labeled with a red-fluorescent […] fluorescent probe tetramethylrhodamine. The peptide stocks were made as 10 mM in degassed sterile Milli-Q water. Each tube was flushed with nitrogen and stored in −80° C. freezer. For tail vein injections, peptides were freshly prepared in degassed Milli-Q water at 1-4 mM in 100-μL Milli-Q. GenBank accession for ANKRD40 is EU164539. Aβ peptides were from AnaSpec, (1) Aβ42: […] (SEQ ID NO: 12); (2) Aβ40: […] […]

For assay [2], the system named is WWOX7-21, WWOX286-299, and ANKRD40266-281 peptides. The assay is described as above. Type of assay: biochemical. The protocol: as §1, §2
In another assay the test system is TPC6AΔ peptides. As to the kind of experiment: Aggregation of serine-containing TPC6AΔ peptides in PBS. To be noted: 24 hours, room temperature. Type of assay: biochemical. The protocol: as §1
Zfra and serine-containing peptides were synthesized by Genemed Synthesis (San Antonio, Tex., USA), (1) Zfra1-31, […] (SEQ ID NO: 2); (2) Zfra4-10, RRSSSCK (SEQ ID NO: 1); (3) WWOX7-21, AGLDDTDSEDELPPG (SEQ ID NO: 3); (4) pS14-WWOX7-21, AGLDDTDpSEDELPPG (SEQ ID NO: 4); (5). […]

For assay [3], the system named is pyramidal neurons in the hippocampi. As to the kind of experiment: Melanoma B16F10-induced neurodegeneration in nude mice. Type of assay: in vivo, mouse. To be noted: hippocampi of nude mice pretreated 3 consecutive weeks via tail veins, then B16F10 inoculated. Here is the method: (§3) FIG. 4 includes photos showing that Zfra suppresses melanoma B16F10-mediated neurodegeneration in the hippocampus. Nude mice were preinjected with 100 μL, of sterile Milli-Q water or Zfra4-10 (1 mM in sterile water) in 3 consecutive weeks. After treatment for a week, these mice were inoculated with melanoma B16F10 cells on both flanks (2×10^5 cells in 100-μL, PBS). Mice were sacrificed when the tumor sizes grew up to 2000-3000 mm^3 in about a month. (A) Zfra blocked neurodegeneration in the hippocampus (top panel) and prevented the formation of TPC6AΔ plaques in the cortex (bottom panel), which negatively correlates with pS14-WWOX expression. Note the presence of condensed apoptotic nuclei in the hippocampal neurons in the control mice, (B) Metastasis of B16F10 cells to the lung was blocked in Zfra-treated mice. Compared to controls, Zfra suppressed p-S14WWOX expression in the lung by ˜72% suppression (three sections). […] (C and D) The non-spatial learning and memory were determined by novel object recognition task for both 3×Tg and Wwox+/− mice. […]
(§4) Six- to eight-week-old male nude (BALB/cAnN.Cg-Foxn1^nu/CrlNarl) mice (National Laboratory Animal Center, Taiwan) were used. […] Tumor volumes were measured daily and calculated using the equation, D×(d)^2/2, where D and d are the major and minor diameters, respectively. […] Z-cell distribution in organs was determined under fluorescence microscopy.

For another assay, the system named is melanoma B16F10 cells. As to the kind of experiment: B16F10 metastasis to the lung in nude mice. Type of assay: in vivo, mouse. The protocol:
as §3, §4

As to “RRSSSCK [Zfra4-10, truncated zinc finger-like peptide, amino acids 4-10 of Zfra]”, in the assay with WWOX (brain (hippocampus)), the “suppression of Ser14 phosphorylation of WWOX (pS14-WWOX)” value was determined as 87±5%. The “suppression of Tyr33 phosphorylation in WWOX” value with WWOX (brain) is reported as 2±6%. Further, the “suppression of phosphorylation in Tyr33 in WWOX in the lung” value in the assay on WWOX (lung) is 5±3%. For the same substance, the “aggregation of pY287-WWOX286-299” value in assay [1] is reported as “did not effectively block”. In assay [2], the “polymerization of phosphorylated WWOX7-21 and ANKRD40266-281” value is reported as “had apparent effects”; the “polymerization or aggregation of non-phosphorylated WWOX7-21, WWOX286-299, ANKRD40266-281” value is given as “effectively blocked”. In the assay on TPC6AΔ peptides, the “aggregation of TPC6AΔ peptides (TPC6AΔ24-38, pS35-TPC6AΔ24-38, TPC6AΔ84-100)” value is on record as “effectively blocked”. The apoptotic nuclei in assay [3] is 0±1%. The “B16F10 metastasis to the lung” value in the assay on melanoma B16F10 cells was “blocked”.

The values above are taken from patent US10344065B2, “Method for treating Alzheimer's disease and method for downregulating protein aggregation in brain” (National Cheng Kung University, priority 2017, dated 2019).
